Data taken from US20260015574A1, “METHODS FOR SHORTENING LAG PHASE DURATION IN MICROORGANISMS” (YEDA RESEARCH AND DEVELOPMENT CO. LTD., priority 2022, published 2026).

Legend:
P. inhibens = assay: Lag phase metabolomics with 13C-labeled DMSP; assay type: cell-based, Phaeobacter inhibens; conditions: 50 μM 13C-labeled DMSP, two hours, LC/MS
Method: DMSP was synthesized in which both S-methyl groups are ^13C-labeled, using the protocol of Wirth and Whitman (2018). Freshly initiated P. inhibens cultures (OD 0.01, ASW+CNS medium) were treated with 50 μM 13C-labeled DMSP and compared to reference cultures with non-labeled DMSP. Bacterial cells were harvested and extracted two hours after adding DMSP. The incorporation of the 13C label was analyzed by LC/MS (FIG. 12).
To further elucidate the fate of methyl groups, the inventors analyzed the transcriptome of DMSP-treated P. inhibens bacteria during the lag phase, and compared it to untreated control cultures. […] To further establish that DMSP methyl groups are assimilated via the methionine cycle, the inventors measured the methionine synthesis activity in protein crude extracts of stationary bacterial cells, using a biochemical assay followed by LC/MS analysis. […] Taken together, the inventors established that DMSP methyl groups are assimilated during the lag phase via the methionine cycle.

[1] = tested on: Phaeobacter inhibens DSM 17395; assay: Growth / lag phase shortening assay of P. inhibens pure cultures with glucose; assay type: cell-based; conditions: for lag phase shortening effect (Δlag time) of panel compounds: 1 mM glucose and 2 μM of the respective compound
Method: ASW was adjusted to pH 8 using HCl. If not otherwise stated, the medium was further supplemented with a source of carbon (glucose, 1 mM), nitrogen (NH4Cl, 5 mM), and sulfur (Na2SO4, 33 mM), referred to as ASW+CNS. […] A 96-well Tecan Infinite M Plex plate reader was used for high-resolution monitoring of bacterial growth dynamics at 30° C. An ImageStreamX Flow Imager system (Amnis) was used to characterize bacterial populations during the lag phase (FIG. 6). The growth of bacteria in co-culture with algae was monitored by counting colony forming units (CFU) on ½ YTSS agar plates. The growth of algae was monitored with a CellStream flow cytometer (Merck, Darmstadt, Germany).
To test whether methylated compounds affect the growth of bacteria, the inventors cultivated bacterial pure cultures with glucose as main growth substrate and supplemented the medium with the well-studied methylated compound dimethylsulfoniopropionate (DMSP). DMSP that is naturally produced by microalgae and found in detectable levels in seawater, is known to be metabolized by various bacteria. […] To quantify the lag phase shortening effect, the inventors calculated the Δlag time, which is the time difference between the commence of exponential growth in control cultures compared to treated cultures (FIG. 5B).
To reflect the natural low bacterial abundance in the oligotrophic ocean with low microalgal productivity, the current bacterial growth experiments were routinely initiated with an optical density (OD) of 0.00001. Such low initial ODs challenge the detection of cell divisions that occur prior to reaching an OD of at least 0.001, which is the theoretical limit of detection. To determine the actual length of the lag phase, the inventors analyzed bacterial cultures using imagining flow cytometry.

E. coli = assay: Lag phase shortening in E. coli; assay type: cell-based, Escherichia coli
Description: (§1) To explore whether lag phase shortening is a general mechanism among bacteria, the inventors tested the effect of methylated compounds in bacteria with different lifestyles. […] Since methylated compounds are a hallmark of photosynthesizing organisms, the inventors next tested a variety of bacteria that are plant-associated. […] Finally, to establish the prevalence of lag phase shortening among bacteria, the inventors tested the model bacterium E. coli. This bacterium is not commonly found associated with photosynthesizing organisms, and thus, is unlikely to respond to algal metabolites. […] The synchrony between specific compounds and different groups of bacteria may reflect the natural context […].

[2] = tested on: opportunistic pathogens, found in both plants and humans; assay: Lag phase shortening in opportunistic pathogens found in plants and humans; assay type: cell-based
Description: as §1

[3] = tested on: P. inhibens mttB1 KO mutant; assay: Lag phase shortening in mttB1 knockout mutant; assay type: cell-based, Phaeobacter inhibens
Method: (§2) For creation of P. inhibens knockout cells, ˜1,000 bp regions upstream and downstream of the gene of interest were amplified by PCR (Phusion High-Fidelity DNA polymerase, Thermo Scientific), using primers that added homologous regions to gentamycin or kanamycin resistance markers. The fragments were assembled and cloned into the TOPOII vector (Invitrogen) using restriction-free cloning (Peleg Y. & Unger T., 2014), generating a knockout (KO) plasmid. P. inhibens electrocompetent cells (300 μl) were transformed with 10 μg of the constructed KO plasmid by a pulse of 1.8 kV (Bio Rad). Cells were selected on ½YTSS agar plates containing 30 μg/ml gentamycin or 150 μg/ml kanamycin. Successful knockouts in single cell clones were verified by PCR and sanger sequencing.
The inventors further sought to better understand why methyl groups shorten the bacterial lag phase. The inventors list at least three cellular scenarios which could explain the effect that methylated compounds have on the lag phase: (1) methyl groups might be a limiting resource; (2) methyl groups might act as a signal that triggers a cellular cascade, which culminates in lag phase shortening; and (3) methylated compounds could accumulate intracellularly and function as osmoprotectants and antioxidants. […]

[4] = tested on: Bacillus subtilis strain 168; assay: Lag phase shortening in B. subtilis; assay type: cell-based
Method: The bacterial strain Phaeobacter inhibens DSM 17395 was purchased from the German collection of microorganisms and cell cultures (DSMZ, Braunschweig, Germany) and stored at −80° C. with 20% glycerol. Routine cultivation of P. inhibens was conducted at 30° C. in artificial seawater medium (ASW) based on Goyet and Poisson (1989). The ASW medium contained mineral salts (NaCl, 409.41 mM; Na2SO4, 28.22 mM; KCl, 9.08 mM; KBr, 0.82 mM; NaF, 0.07 mM; Na2CO3, 0.20 mM; NaHCO3, 2 mM; MgCl2, 50.66 mM; SrCl2, 0.09 mM), L1 vitamins (thiamine HCl, 100 μg/L; biotin, 0.5 μg/L; vitamin B12, […]), L1 trace elements (Na2EDTA·2H2O, 4.36 mg/L; FeCl3·6H2O, 3.15 mg/L; MnCl2·4H2O, 178.1 μg/L; ZnSO4·7H2O, 23.0 μg/L; CoCl2·6H2O, 11.9 μg/L; CuSO4·5H2O, 2.5 μg/L; Na2MoO4·2H2O, 19.9 μg/L; H2SeO3, 1.29 μg/L; NiSO4·6H2O, 2.63 μg/L; Na3 VO4, 1.84 μg/L; K2CrO4, 1.94 μg/L), and L1 nutrients (NaNO3, 882 μM; NaH2PO4, 36.22 μM). ASW was adjusted to pH 8 using HCl. If not otherwise stated, the medium was further supplemented with a source of carbon (glucose, 1 mM), nitrogen (NH4Cl, 5 mM), and sulfur (Na2SO4, 33 mM), referred to as ASW+CNS. Methylated effector compounds (e.g., donors) were administered at 1 or 2 μM in routine assays, or in higher concentrations as stated. The bacterium Bacillus subtilis strain 168 was cultivated in M9 Medium (Na2HPO4, 6 g/L; KH2PO4, 3 g/L; NaCl, 0.5 g/L; NH4CL, 1 g/L; CaCl2), 100 µM; MgSO4, 1 mM; Thiamine, 5 mg/L; EDTA, 50 mg/L; FcCl3, 4.98 mg/L; ZnCl2, 0.84 mg/L; CuCl2·2H2O, 0.13 mg/L; CoCl2·6H2O, 0.1 mg/L; H3BO3, 0.1 mg/L; MnCl2·4H2O, 0.016 mg/L; pH 7.1) with 20 mM glucose. Other bacterial strains tested for lag phase shortening were isolated from the marine environment (Despotović et al., 2021), and cultivated in ASW+CNS. A 96-well Tecan Infinite M Plex plate reader was used for high-resolution monitoring of bacterial growth dynamics at 30° C. […] The growth of bacteria in co-culture with algae was monitored by counting colony forming units (CFU) on ½ YTSS agar plates. The growth of algae was monitored with a CellStream flow cytometer (Merck, Darmstadt, Germany). […]

[5] = tested on: marine bacterium Vibrio sp.; assay: Lag phase shortening in Vibrio sp.; assay type: cell-based; conditions: 2 μM compound
Method: (§3) The bacterial strain Phaeobacter inhibens DSM 17395 was purchased from the German collection of microorganisms and cell cultures (DSMZ, Braunschweig, Germany) and stored at −80° C. with 20% glycerol. Routine cultivation of P. inhibens was conducted at 30° C. in artificial seawater medium (ASW) based on Goyet and Poisson (1989). The ASW medium contained mineral salts (NaCl, 409.41 mM; Na2SO4, 28.22 mM; KCl, 9.08 mM; KBr, 0.82 mM; NaF, 0.07 mM; Na2CO3, 0.20 mM; NaHCO3, 2 mM; MgCl2, 50.66 mM; SrCl2, 0.09 mM), L1 vitamins (thiamine HCl, 100 μg/L; biotin, 0.5 μg/L; vitamin B12, […]), L1 trace elements (Na2EDTA·2H2O, 4.36 mg/L; FeCl3·6H2O, 3.15 mg/L; MnCl2·4H2O, 178.1 μg/L; ZnSO4·7H2O, 23.0 μg/L; CoCl2·6H2O, 11.9 μg/L; CuSO4·5H2O, 2.5 μg/L; Na2MoO4·2H2O, 19.9 μg/L; H2SeO3, 1.29 μg/L; NiSO4·6H2O, 2.63 μg/L; Na3 VO4, 1.84 μg/L; K2CrO4, 1.94 μg/L), and L1 nutrients (NaNO3, 882 μM; NaH2PO4, 36.22 μM). ASW was adjusted to pH 8 using HCl. […] A 96-well Tecan Infinite M Plex plate reader was used for high-resolution monitoring of bacterial growth dynamics at 30° C. […] The growth of bacteria in co-culture with algae was monitored by counting colony forming units (CFU) on ½ YTSS agar plates. The growth of algae was monitored with a CellStream flow cytometer (Merck, Darmstadt, Germany). […]

Various marine bacteria = assay: Lag phase shortening in various marine bacteria; assay type: cell-based; conditions: minute amounts of compound
Method: as §3

[6] = tested on: bacteria that are plant-associated; assay: Lag phase shortening in plant-associated bacteria; assay type: cell-based
Description: as §1

P. inhibens Δbmt mutant = assay: Growth and lag phase shortening in Δbmt mutant; assay type: cell-based, Phaeobacter inhibens; conditions: minimal media, addition of 200 μM methionine
Method: as §2

SMILES: [13CH3][S+]([13CH3])CCC(=O)[O-] [13C-labeled DMSP]
- metabolic fate of DMSP methyl groups (13C label incorporation) (P. inhibens): converted into SAM

SMILES: C[S+](C)CC(=O)[O-] [DMSA, dimethylsulfonioacetate]
- lag phase shortening effect (Δlag time) of panel compounds [1]: most pronounced

SMILES: C[S+](C)CC[C@H](N)C(=O)O [SMM, S-methyl-L-methionine]
- Δlag time (E. coli; E. coli BL21, 2 μM SMM (FIG. 17C)): Δlag time of one hour
- lag phase shortening (E. coli; modified strains BL21(DE3) and DH5α): this effect was observed
- lag phase shortening (E. coli; wild-type strain K12): only showed this effect upon addition of greater SMM concentrations
- lag phase shortening [2]: shorten their lag phase

SMILES: COc1cc(Cc2cnc(N)nc2N)cc(OC)c1OC [Trimethoprim, reference compound]
- growth of P. inhibens in the presence of the THF inhibitor [1]: cannot grow unless the culture is supplemented with nucleotides

SMILES: C[N+](C)(C)CC(=O)O [betaine, glycine betaine]
- lag phase shortening effect (Δlag time) of panel compounds [1]: most pronounced
- lag phase shortening [3]: does not shorten the lag phase
- lag phase shortening ([4]; 2 μM compound): induction of the lag phase shortening
- Δlag time ([4]; FIG. 17B): 7 h
- lag phase shortening [5]: induction of the lag phase shortening
- lag phase shortening (E. coli; treatment with algal metabolites): did not shorten the lag phase
- lag phase shortening (Various marine bacteria): marked lag phase shortening
- lag phase shortening [6]: significant shortening of the lag phase

SMILES: C[N+](C)(C)CC(O)CC(=O)[O-] (centres unmarked) [carnitine]
- lag phase shortening effect (Δlag time) of panel compounds [1]: most pronounced

SMILES: C[S+](C)CCC(O)CC(=O)[O-] (centres unmarked) [gonyol]
- lag phase shortening effect (Δlag time) of panel compounds [1]: most pronounced

SMILES: CSCC[C@H](N)C(=O)O [methionine]
- lag phase shortening effect (Δlag time) of panel compounds [1]: prolonged the lag phase
- growth of the Δbmt mutant (P. inhibens Δbmt mutant): fully recovered

SMILES: C[N+]1(C)CCC[C@H]1C(=O)[O-] [stachydrine]
- lag phase shortening effect (Δlag time) of panel compounds [1]: most pronounced
